Laboratory results: patent US8334235B2, “Thiadiazolyloxyphenylamidines and use thereof as fungicides” (Bayer Cropscience AG, priority 2008, dated 2012)

Experiments:
Assay type in all cases: in vivo
Sphaerotheca fuliginea = experiment: Sphaerotheca test (cucumber)/protective; details: Podosphaera fuliginea, 168 h, 500 ppm active substance, protective, evaluation 7 days after inoculation, read-out: degree of effectiveness
Description: • Solvent: 49 parts by weight of N,N-dimethylformamide • Emulsifier: 1 part by weight of alkylaryl polyglycol ether (polyoxyethylene (16) tristearylphenyl ether) To prepare a suitable active substance composition, 1 part by weight of active substance is mixed with the given amounts of solvents and emulsifier and the concentrate is diluted to the desired concentration using water. For the testing of protective effectiveness, young cucumber plants are sprayed with the active substance composition in the application rate given. One day after treatment, the plants are inoculated with a suspension of spores of Sphaerotheca fuliginea. The plants are then placed in a greenhouse at 70% relative humidity and a temperature of 23° C. Evaluation is carried out 7 days after the inoculation. In this connection, 0% means a degree of effectiveness corresponding to that of the control, while a degree of effectiveness of 100% means that no infestation is observed.

Puccinia triticina [1] = experiment: Puccinia triticina test (wheat)/protective; details: 192 h, 500 ppm active substance, protective, evaluation 8 days after inoculation, read-out: degree of effectiveness
Description: (§1) • Solvent: 50 parts by weight of N,N-dimethylacetamide • Emulsifier: 1 part by weight of alkylaryl polyglycol ether (polyoxyethylene (16) tristearylphenyl ether)
(§2) To prepare a suitable active substance composition, 1 part by weight of active substance is mixed with the given amounts of solvent and emulsifier and the concentrate is diluted to the desired concentration using water.
For the testing of protective effectiveness, young plants are sprayed with the active substance composition in the application rate given. After the spray coating has been dried on, the plants are sprayed with a suspension of spores of Puccinia triticina. The plants remain in an incubation chamber at 20° C. and 100% relative humidity for 48 hours. The plants are placed in a greenhouse at a temperature of approximately 20° C. and a relative humidity of approximately 80%.
(§3) Evaluation is carried out 8 days after the inoculation. In this connection, 0% means a degree of effectiveness corresponding to that of the control, while a degree of effectiveness of 100% means that no infestation is observed.

Puccinia triticina [2] = experiment: Puccinia triticina test (wheat)/curative; details: 192 h, 500 ppm active substance, curative, evaluation 8 days after inoculation, read-out: degree of effectiveness
Description: as §1, §2
For the testing of curative effectiveness, young plants are sprayed with a suspension of spores of Puccinia triticina. The plants remain in an incubation chamber at 20° C. and 100% relative humidity for 48 hours and are then sprayed with the active substance composition in the application rate given. The plants are placed in a greenhouse at a temperature of approximately 20° C. and a relative humidity of approximately 80%.
as §3

Alternaria solani = experiment: Alternaria test (tomato)/protective; details: 72 h, 100 ppm active substance, protective, evaluation 3 days after inoculation, read-out: degree of effectiveness
Description: • Solvents: 24.5 parts by weight of acetone • 24.5 parts by weight of dimethylacetamide • Emulsifier: 1 part by weight of alkylaryl polyglycol ether (polyoxyethylene (16) tristearylphenyl ether)
To prepare a suitable active substance composition, 1 part by weight of substance is mixed with the given amounts of solvents and emulsifier and the concentrate is diluted to the desired concentration using water.
For the testing of protective effectiveness, young plants are sprayed with the active substance composition in the application rate given. After the spray coating has been dried on, the plants are inoculated with an aqueous suspension of spores of Alternaria solani. The plants are then placed in an incubation chamber at approximately 20° C. and 100% relative humidity.
Evaluation is carried out 3 days after the inoculation. In this connection, 0% means a degree of effectiveness corresponding to that of the control, while a degree of effectiveness of 100% means that no infestation is observed.

## Cc1cc(N=CN(C)CC2CC2)c(Cl)cc1Oc1nc(C(C)(C)C)ns1 [Compound 26, N′-{4-[(3-(tert-butyl)-1,2,4-thiadiazol-5-yl)oxy]-2-chloro-5-methylphenyl}-N-(cyclopropylmethyl)-N-methylimidoformamide]
Sphaerotheca fuliginea
  pest or weed control at 500 ppm: ≥ 70%
Puccinia triticina [1]
  pest or weed control at 500 ppm: ≥ 70%
Puccinia triticina [2]
  pest or weed control at 500 ppm: ≥ 70%

## Cc1cc(N=CN(C)C(C)C)c(Cl)cc1Oc1nc(C2(Cl)CC2)ns1 [Compound 4, N′-(2-chloro-4-{[3-(1-chlorocyclopropyl)-1,2,4-thiadiazol-5-yl]oxy}-5-methylphenyl)-N-methyl-N-propan-2-ylimidoformamide]
Sphaerotheca fuliginea
  pest or weed control at 500 ppm: ≥ 70%
Puccinia triticina [1]
  pest or weed control at 500 ppm: ≥ 70%
Puccinia triticina [2]
  pest or weed control at 500 ppm: ≥ 70%

## CCN(C)/C=N/c1cc(C)c(Oc2nc(Cc3ccc(F)cc3F)ns2)cc1Cl [Compound 40, N′-(2-chloro-4-{[3-(2,4-difluorobenzyl)-1,2,4-thiadiazol-5-yl]oxy}-5-methylphenyl)-N-ethyl-N-methylimidoformamide]
Alternaria solani
  pest or weed control at 100 ppm: ≥ 70%
Sphaerotheca fuliginea
  pest or weed control at 500 ppm: ≥ 70%
Puccinia triticina [1]
  pest or weed control at 500 ppm: ≥ 70%
Puccinia triticina [2]
  pest or weed control at 500 ppm: ≥ 70%

## Cc1cc(/N=C\N2CCCCC2)c(Cl)cc1Oc1nc(/C=C/c2ccc(F)cc2)ns1 [Compound 16, 2-chloro-4-({3-[(E)-2-(4-fluorophenyl)ethenyl]-1,2,4-thiadiazol-5-yl}oxy)-5-methyl-N-[(Z)-piperidin-1-ylmethylidene]aniline]
Sphaerotheca fuliginea
  pest or weed control at 500 ppm: ≥ 70%

## CCN(C)/C=N/c1cc(C)c(Oc2nc(COc3cccc(Cl)c3)ns2)cc1Cl [Compound 35, N′-[2-chloro-4-({3-[(3-chlorophenoxy)methyl]-1,2,4-thiadiazol-5-yl}oxy)-5-methylphenyl]-N-ethyl-N-methylimidoformamide]
Sphaerotheca fuliginea
  pest or weed control at 500 ppm: ≥ 70%
Puccinia triticina [1]
  pest or weed control at 500 ppm: ≥ 70%
Puccinia triticina [2]
  pest or weed control at 500 ppm: ≥ 70%

## Cc1cc(N=CN(C)C(C)C)c(Cl)cc1Oc1nc([C@@H]2C[C@H]2c2ccccc2)ns1 (relative stereo) [Compound 31, rel-N′-[2-chloro-5-methyl-4-({3-[(1R,2R)-2-phenylcyclopropyl]-1,2,4-thiadiazol-5-yl}oxy)phenyl]-N-methyl-N-(propan-2-yl)imidoformamide]
Sphaerotheca fuliginea
  pest or weed control at 500 ppm: ≥ 70%
Puccinia triticina [1]
  pest or weed control at 500 ppm: ≥ 70%
Puccinia triticina [2]
  pest or weed control at 500 ppm: ≥ 70%

## CCN(C)/C=N/c1cc(C)c(Oc2nc(COc3ccccc3)ns2)cc1Cl [Compound 37, N′-(2-chloro-5-methyl-4-{[3-(phenoxymethyl)-1,2,4-thiadiazol-5-yl]oxy}phenyl)-N-ethyl-N-methylimidoformamide]
Sphaerotheca fuliginea
  pest or weed control at 500 ppm: ≥ 70%

## CCN(C)/C=N/c1cc(C)c(Oc2nc(CCl)ns2)cc1Cl [Compound 19, N′-(2-chloro-4-{[3-(chloromethyl)-1,2,4-thiadiazol-5-yl]oxy}-5-methylphenyl)-N-ethyl-N-methylimidoformamide]
Puccinia triticina [2]
  pest or weed control at 500 ppm: ≥ 70%

## CCN(C)C=Nc1cc(C)c(Oc2nc(Cc3cccc(C(F)(F)F)c3)ns2)cc1Cl [Compound 34, N′-[2-chloro-5-methyl-4-({3-[3-(trifluoromethyl)benzyl]-1,2,4-thiadiazol-5-yl}oxy)phenyl]-N-ethyl-N-methylimidoformamide]
Sphaerotheca fuliginea
  pest or weed control at 500 ppm: ≥ 70%
Puccinia triticina [1]
  pest or weed control at 500 ppm: ≥ 70%
Puccinia triticina [2]
  pest or weed control at 500 ppm: ≥ 70%

## CCN(C)/C=N/c1cc(C)c(Oc2nc(C(C)(C)c3ccc(Cl)cc3)ns2)cc1Cl [Compound 11, N′-[2-chloro-4-({3-[2-(4-chlorophenyl)propan-2-yl]-1,2,4-thiadiazol-5-yl}oxy)-5-methylphenyl]-N-ethyl-N-methylimidoformamide]
Alternaria solani
  pest or weed control at 100 ppm: ≥ 70%
Sphaerotheca fuliginea
  pest or weed control at 500 ppm: ≥ 70%
Puccinia triticina [1]
  pest or weed control at 500 ppm: ≥ 70%
Puccinia triticina [2]
  pest or weed control at 500 ppm: ≥ 70%

## Cc1cc(/N=C\N2CCCCC2)c(Cl)cc1Oc1nc(C(C)(C)c2ccc(Cl)cc2)ns1 [Compound 12, 2-chloro-4-({3-[2-(4-chlorophenyl)propan-2-yl]-1,2,4-thiadiazol-5-yl}oxy)-5-methyl-N-[(Z)-piperidin-1-ylmethylidene]aniline]
Alternaria solani
  pest or weed control at 100 ppm: ≥ 70%
Sphaerotheca fuliginea
  pest or weed control at 500 ppm: ≥ 70%

## Cc1cc(/N=C\N2CCCCC2)c(Cl)cc1Oc1nc(C2(c3ccc(Cl)cc3)CC2)ns1 [Compound 21, 2-chloro-4-({3-[1-(4-chlorophenyl)cyclopropyl]-1,2,4-thiadiazol-5-yl}oxy)-5-methyl-N-[(Z)-piperidin-1-ylmethylidene]aniline]
Sphaerotheca fuliginea
  pest or weed control at 500 ppm: ≥ 70%

## CCN(C)/C=N/c1cc(C)c(Oc2nc(CCc3ccc(Cl)cc3)ns2)cc1Cl [Compound 9, N′-[2-chloro-4-({3-[2-(4-chlorophenyl)ethyl]-1,2,4-thiadiazol-5-yl}oxy)-5-methylphenyl]-N-ethyl-N-methylimidoformamide]
Sphaerotheca fuliginea
  pest or weed control at 500 ppm: ≥ 70%
Puccinia triticina [1]
  pest or weed control at 500 ppm: ≥ 70%
Puccinia triticina [2]
  pest or weed control at 500 ppm: ≥ 70%

## CCN(C)C=Nc1cc(C)c(Oc2nc([C@@H]3C[C@H]3c3ccccc3)ns2)cc1Cl (relative stereo) [Compound 29, rel-N′-[2-chloro-5-methyl-4-({3-[(1R,2R)-2-phenylcyclopropyl]-1,2,4-thiadiazol-5-yl}oxy)phenyl]-N-ethyl-N-methylimidoformamide]
Sphaerotheca fuliginea
  pest or weed control at 500 ppm: ≥ 70%
Puccinia triticina [1]
  pest or weed control at 500 ppm: ≥ 70%
Puccinia triticina [2]
  pest or weed control at 500 ppm: ≥ 70%

## Cc1cc(/N=C/N2CCCCC2)c(Cl)cc1Oc1nc(C2(Cl)CC2)ns1 [Compound 5, 2-chloro-4-{[3-(1-chlorocyclopropyl)-1,2,4-thiadiazol-5-yl]oxy}-5-methyl-N-[(E)-piperidin-1-ylmethylidene]aniline]
Sphaerotheca fuliginea
  pest or weed control at 500 ppm: ≥ 70%
Puccinia triticina [1]
  pest or weed control at 500 ppm: ≥ 70%
Puccinia triticina [2]
  pest or weed control at 500 ppm: ≥ 70%

## C=CCN(C)C=Nc1cc(C)c(Oc2nc(C(C)(C)C)ns2)cc1Cl [Compound 25, N′-{4-[(3-(tert-butyl)-1,2,4-thiadiazol-5-yl)oxy]-2-chloro-5-methylphenyl}-N-methyl-N-(prop-2-en-1-yl)imidoformamide]
Sphaerotheca fuliginea
  pest or weed control at 500 ppm: ≥ 70%
Puccinia triticina [1]
  pest or weed control at 500 ppm: ≥ 70%
Puccinia triticina [2]
  pest or weed control at 500 ppm: ≥ 70%

## CCN(C)/C=N/c1cc(C)c(Oc2nc(COc3ccc(Cl)cc3)ns2)cc1Cl [Compound 22, N′-[2-chloro-4-({3-[(4-chlorophenoxy)methyl]-1,2,4-thiadiazol-5-yl}oxy)-5-methylphenyl]-N-ethyl-N-methylimidoformamide]
Sphaerotheca fuliginea
  pest or weed control at 500 ppm: ≥ 70%

## Cc1cc(N=CN(C)C(C)C)c(Cl)cc1Oc1nc(C2(c3ccc(Cl)cc3)CC2)ns1 [Compound 20, N′-[2-chloro-4-({3-[1-(4-chlorophenyl)cyclopropyl]-1,2,4-thiadiazol-5-yl}oxy)-5-methylphenyl]-N-methyl-N-(propan-2-yl)imidoformamide]
Sphaerotheca fuliginea
  pest or weed control at 500 ppm: ≥ 70%
Puccinia triticina [1]
  pest or weed control at 500 ppm: ≥ 70%
Puccinia triticina [2]
  pest or weed control at 500 ppm: ≥ 70%

## CCN(C)/C=N/c1cc(C)c(Oc2nc(C(C)(C)Cc3ccccc3)ns2)cc1Cl [Compound 28, N′-(2-chloro-5-methyl-4-{[3-(2-methyl-1-phenylpropan-2-yl)-1,2,4-thiadiazol-5-yl]oxy}phenyl)-N-ethyl-N-methylimidoformamide]
Alternaria solani
  pest or weed control at 100 ppm: ≥ 70%
Sphaerotheca fuliginea
  pest or weed control at 500 ppm: ≥ 70%
Puccinia triticina [1]
  pest or weed control at 500 ppm: ≥ 70%

## Cc1cc(/N=C/N2CCCCC2)c(Cl)cc1Oc1nc(C(C)c2ccc(Cl)cc2)ns1 (stereo not drawn) [Compound 7, 2-chloro-4-({3-[1-(4-chlorophenyl)ethyl]-1,2,4-thiadiazol-5-yl}oxy)-5-methyl-N-[(E)-piperidin-1-ylmethylidene]aniline]
Sphaerotheca fuliginea
  pest or weed control at 500 ppm: ≥ 70%

## CCN(C)/C=N/c1cc(C)c(Oc2nc(COc3ccccc3Cl)ns2)cc1Cl [Compound 36, N′-[2-chloro-4-({3-[(2-chlorophenoxy)methyl]-1,2,4-thiadiazol-5-yl}oxy)-5-methylphenyl]-N-ethyl-N-methylimidoformamide]
Sphaerotheca fuliginea
  pest or weed control at 500 ppm: ≥ 70%
Puccinia triticina [2]
  pest or weed control at 500 ppm: ≥ 70%
